The results in this text go back to patent US12545643B2, “3,5-diaminobenzoic acid compound, and Pin1 inhibitor and therapeutic agent for inflammatory diseases using same” (Amenis Bioscience, Inc., priority 2020, dated 2026).

T1 sequence (Q13526 whole entry): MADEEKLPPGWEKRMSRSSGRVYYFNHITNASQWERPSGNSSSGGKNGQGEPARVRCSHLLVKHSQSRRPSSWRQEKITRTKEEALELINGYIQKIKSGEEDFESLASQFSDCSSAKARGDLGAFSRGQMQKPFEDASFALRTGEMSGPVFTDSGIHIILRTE

The first assay concerns the target T1, Pin1 (Homo sapiens, UniProt Q13526). The assay is described as follows: Cell-based assay of Pin1 inhibition (AMPK phosphorylation level as index, Western blot). More on the design: endogenous in cells; host or cells: 293T cells; key: +++: a higher level of AMPK phosphorylation is promoted, as compared with C1; ++: a similar level of AMPK phosphorylation is promoted, as compared with C1; +: a lower level of AMPK phosphorylation is promoted, as compared with C1; −: no or almost no promotion is found in AMPK phosphorylation. Particulars: 293T cells, compound at 50 μM, 10 mM 2-DG, pAMPK level compared with known Pin1 inhibitor C1. As for the experimental part: To evaluate the inhibitory activity of each compound synthesized in Example 1 against the function of Pin1, a cell-based assay was performed according to the method previously developed by the inventors (Yusuke Nakatsu et al., Journal of Biological Chemistry, 2015, Vol. 290, No. 40, pp. 24255-24266), in which the phosphorylation level of AMPK (AMP-activated protein kinase), a protein whose phosphorylation is suppressed by Pin1, was examined as an index.
Briefly, 293T cells were plated on a collagen-coated 24-well plate. Forty-eight hours later, each compound synthesized in the preceding example (at 50 μM) was added to the plate, and the plate was left to stand in an incubator for 30 minutes. Subsequently, 10 mM 2-DG was added to the plate, and one hour later, each sample was collected with a buffer containing mercaptoethanol and SDS.
SDS-PAGE and blotting were performed, and blocking was then performed with 3% BSA for 1 hour, according to conventional protocols. Subsequently, a pAMPK antibody (Cell Signaling; diluted 1:2000 in Can Get Signal Solution 1, Toyobo) as a primary antibody, and an HRP-linked anti rabbit IgG (GE Healthcare; diluted 1:4000 in Can Get Signal Solution 2, Toyobo) as a secondary antibody were allowed to react at ambient temperature for 1 hour prior to detection.
The inhibitory activity against the function of Pin1 was evaluated as indicated below by comparing the inhibition levels between each compound and a known Pin1 inhibitor, C1 ((R)-2-(5-(4-methoxyphenyl)-2-methylfuran-3-carboxamido)-3-(naphthalene-6-yl) propanoic acid):
(+++): a higher level of AMPK phosphorylation is promoted, as compared with C1;
(++): a similar level of AMPK phosphorylation is promoted, as compared with C1;
(+): a lower level of AMPK phosphorylation is promoted, as compared with C1;
(−): no or almost no promotion is found in AMPK phosphorylation.
On to `COC(=O)c1cc(NC(=O)c2ccc3ccccc3c2)cc(NC(=O)n2c3ccccc3c3ccccc32)c1` [Compound H-591], for which the “Pin1 inhibition activity Cell-based assay” value was “+++ (Hydrolysis causes conversion to H-594)”.

On to `O=C(O)c1cc(NC(=O)c2ccc3ccccc3c2)cc(NC(=O)n2c3ccccc3c3ccccc32)c1` [Compound H-594], for which the “Pin1 inhibition activity Cell-based assay” value was “+++”.

Take `COC(=O)c1cc(NC(=O)Nc2cccc3ccccc23)cc(NC(=O)c2ccc3ccccc3c2)c1` [Compound H-609]: the “Pin1 inhibition activity Cell-based assay” value is listed as “++ to +++ (Hydrolysis causes conversion to H-613)”.

Take `O=C(Nc1cc(NC(=O)c2ccc3ccccc3c2)cc(C(=O)O)c1)Nc1cccc2ccccc12` [Compound H-613]: the “Pin1 inhibition activity Cell-based assay” value is reported as “+ to ++”.

With `COC(=O)c1cc(NC(=O)c2ccccc2)cc(NC(=O)n2c3ccccc3c3ccccc32)c1` [Compound H-679], the “Pin1 inhibition activity Cell-based assay” value is given as “++ (Hydrolysis causes conversion to H-681)”.

For `O=C(O)c1cc(NC(=O)c2ccccc2)cc(NC(=O)n2c3ccccc3c3ccccc32)c1` [Compound H-681], the “Pin1 inhibition activity Cell-based assay” value is reported as “++”.

`O=C(O)c1cc(NC(=O)c2cccnc2)cc(NC(=O)n2c3ccccc3c3ccccc32)c1` [Compound H-682]: the “Pin1 inhibition activity Cell-based assay” value was “+”.

As to `COC(=O)c1cc(NC(=O)c2ccc(NC(C)=O)cc2)cc(NC(=O)n2c3ccccc3c3ccccc32)c1` [Compound H-687], the “Pin1 inhibition activity Cell-based assay” value is listed as “− (Hydrolysis causes conversion to H-694)”.

Consider `COC(=O)c1cc(NC(=O)c2ccc3c(c2)OCO3)cc(NC(=O)n2c3ccccc3c3ccccc32)c1` [Compound H-690], for which the “Pin1 inhibition activity Cell-based assay” value is “− (Hydrolysis causes conversion to H-695)”.

For the compound `O=C(O)c1cc(NC(=O)c2ccc3c(c2)OCCO3)cc(NC(=O)n2c3ccccc3c3ccccc32)c1` [Compound H-692], the “Pin1 inhibition activity Cell-based assay” value is “+++”.

As for `CC(=O)Nc1ccc(C(=O)Nc2cc(NC(=O)n3c4ccccc4c4ccccc43)cc(C(=O)O)c2)cc1` [Compound H-694], the “Pin1 inhibition activity Cell-based assay” value was “++”.

Regarding `O=C(O)c1cc(NC(=O)c2ccc3c(c2)OCO3)cc(NC(=O)n2c3ccccc3c3ccccc32)c1` [Compound H-695], the “Pin1 inhibition activity Cell-based assay” value is “+++”.

With `COC(=O)c1cc(NC(=O)c2ccc(OC(C)=O)cc2)cc(NC(=O)n2c3ccccc3c3ccccc32)c1` [Compound H-696], the “Pin1 inhibition activity Cell-based assay” value is listed as “++ (Hydrolysis causes conversion to H-697)”.

With `O=C(O)c1cc(NC(=O)c2ccc(O)cc2)cc(NC(=O)n2c3ccccc3c3ccccc32)c1` [Compound H-697], the “Pin1 inhibition activity Cell-based assay” value is listed as “+”.

With `COC(=O)c1cc(NC(=O)c2cnccn2)cc(NC(=O)n2c3ccccc3c3ccccc32)c1` [Compound H-699], the “Pin1 inhibition activity Cell-based assay” value was “++ (Hydrolysis causes conversion to H-700)”.

As to `O=C(O)c1cc(NC(=O)c2cnccn2)cc(NC(=O)n2c3ccccc3c3ccccc32)c1` [Compound H-700], the “Pin1 inhibition activity Cell-based assay” value is listed as “++”.

For `COC(=O)c1cc(NC(=O)c2ccc3ccccc3c2)cc(NC(=O)N(c2ccccc2)c2ccccc2)c1` [Compound H-728], the “Pin1 inhibition activity Cell-based assay” value is “+ (Hydrolysis causes conversion to H-732)”.

`COC(=O)c1cc(NC(=O)c2ccc3ccccc3n2)cc(NC(=O)N(c2ccccc2)c2ccccc2)c1` [Compound H-729]: the “Pin1 inhibition activity Cell-based assay” value is recorded as “++ (Hydrolysis causes conversion to H-733)”.

Consider `COC(=O)c1cc(NC(=O)c2ccc3c(c2)OCCO3)cc(NC(=O)N(c2ccccc2)c2ccccc2)c1` [Compound H-730], for which the “Pin1 inhibition activity Cell-based assay” value is reported as “++ (Hydrolysis causes conversion to H-734)”.

`COC(=O)c1cc(NC(=O)c2cnc3ccccc3n2)cc(NC(=O)N(c2ccccc2)c2ccccc2)c1` [Compound H-731]: the “Pin1 inhibition activity Cell-based assay” value is given as “+++ (Hydrolysis causes conversion to H-735)”.

Regarding `O=C(O)c1cc(NC(=O)c2ccc3ccccc3c2)cc(NC(=O)N(c2ccccc2)c2ccccc2)c1` [Compound H-732], the “Pin1 inhibition activity Cell-based assay” value is on record as “+”.

Turning to `O=C(O)c1cc(NC(=O)c2ccc3ccccc3n2)cc(NC(=O)N(c2ccccc2)c2ccccc2)c1` [Compound H-733], the “Pin1 inhibition activity Cell-based assay” value is given as “−”.

Take `O=C(O)c1cc(NC(=O)c2ccc3c(c2)OCCO3)cc(NC(=O)N(c2ccccc2)c2ccccc2)c1` [Compound H-734]: the “Pin1 inhibition activity Cell-based assay” value is “−”.

With `O=C(O)c1cc(NC(=O)c2cnc3ccccc3n2)cc(NC(=O)N(c2ccccc2)c2ccccc2)c1` [Compound H-735], the “Pin1 inhibition activity Cell-based assay” value is listed as “+”.

Turning to `COC(=O)c1cc(NC(=O)Cn2c3ccccc3c3ccccc32)cc(NC(=O)c2ccc3ccccc3c2)c1` [Compound H-744], the “Pin1 inhibition activity Cell-based assay” value is “+ (Hydrolysis causes conversion to H-745)”.

For `O=C(Cn1c2ccccc2c2ccccc21)Nc1cc(NC(=O)c2ccc3ccccc3c2)cc(C(=O)O)c1` [Compound H-745], the “Pin1 inhibition activity Cell-based assay” value is “−”.

Take `COC(=O)c1cc(NC(=O)Cn2c3ccccc3c3ccccc32)cc(NC(=O)c2ccc3ccccc3n2)c1` [Compound H-746]: the “Pin1 inhibition activity Cell-based assay” value is “− (Hydrolysis causes conversion to H-747)”.

Turning to `O=C(Cn1c2ccccc2c2ccccc21)Nc1cc(NC(=O)c2ccc3ccccc3n2)cc(C(=O)O)c1` [Compound H-747], the “Pin1 inhibition activity Cell-based assay” value is on record as “++”.

As to `COC(=O)c1cc(NC(=O)Cn2c3ccccc3c3ccccc32)cc(NC(=O)c2ccc3c(c2)OCCO3)c1` [Compound H-748], the “Pin1 inhibition activity Cell-based assay” value is listed as “++ (Hydrolysis causes conversion to H-749)”.

Take `COC(=O)c1cc(NC(=O)COc2ccccc2)cc(NC(=O)n2c3ccccc3c3ccccc32)c1` [Compound H-758]: the “Pin1 inhibition activity Cell-based assay” value is “− (Hydrolysis causes conversion to H-759)”.

As for `O=C(COc1ccccc1)Nc1cc(NC(=O)n2c3ccccc3c3ccccc32)cc(C(=O)O)c1` [Compound H-759], the “Pin1 inhibition activity Cell-based assay” value is recorded as “−”.

For `COC(=O)c1cc(NC(=O)COc2ccc3ccccc3c2)cc(NC(=O)n2c3ccccc3c3ccccc32)c1` [Compound H-760], the “Pin1 inhibition activity Cell-based assay” value is on record as “+ (Hydrolysis causes conversion to H-761)”.

Consider `COC(=O)c1cc(NC(=O)COc2ccc3ccccc3n2)cc(NC(=O)n2c3ccccc3c3ccccc32)c1` [Compound H-764], for which the “Pin1 inhibition activity Cell-based assay” value is given as “− (Hydrolysis causes conversion to H-765)”.

As for `COC(=O)c1cc(NC(=O)CNC(=O)c2ccccc2)cc(NC(=O)n2c3ccccc3c3ccccc32)c1` [Compound H-766], the “Pin1 inhibition activity Cell-based assay” value is reported as “+ (Hydrolysis causes conversion to H-767)”.

For the compound `COC(=O)c1cc(NC(=O)CNC(=O)OCc2ccccc2)cc(NC(=O)n2c3ccccc3c3ccccc32)c1` [Compound H-768], the “Pin1 inhibition activity Cell-based assay” value was “− (Hydrolysis causes conversion to H-769)”.

The target of a further assay is T1, Pin1. The assay is described as follows: Cell-free assay of peptidylprolyl isomerase activity (absorbance at 330 nm, substrate Suc-Ala-Glu-Pro-Phe-pNA). The following applies: compound 10 μM, Pin1 5 nM, substrate peptide 60 μM, 10° C.; read-out: Pin1 inhibition activity Cell-free assay (inhibition ratio). Format: biochemical. The method, then:
For some compounds synthesized in Example 1, the inhibitory activity against the function of Pin1 was measured by a cell-free assay based on the method by Janowski et al. (AnalyticalBiochemistry, 1997, Vol. 252, Issue 2, pp. 299-307) because there is an assay measuring peptidylprolylisomerase activity without cells (cell-free).
Briefly, an assay buffer (containing 35 mM HEPES, pH 7.8, 50 μM DTT and 0.0025% NP40) was equilibrated to 10° C. in a quartz cell with stirring function. To this solution was added the compound dissolved in DMSO (10 μM) and then UV spectrum of the resulting solution was immediately measured. Then Pin1 (final concentration of 5 nM) was added to the solution. The reaction was initiated by adding a substrate peptide (Suc-Ala-Glu-Pro-Phe-pNA) dissolved in 0.5 M LiCl solution in trifluoroethanol (final concentration of 60 μM). After reaction was initiated, the change of absorbance at 330 nm was measured for 5 minutes. The resultant reaction curve was fitted to a first order decay model to calculate the reaction rate. The catalytic reaction rate was calculated by subtracting the background rate from the reaction rate. The inhibition ratio (%) was calculated from the catalytic reaction rates in the presence and absence of the compound. The higher inhibition ratio means the higher inhibitory activity against Pin1 function.
With `O=C(Nc1cc(NC(=O)c2ccc3ccccc3c2)cc(C(=O)O)c1)Nc1cccc2ccccc12` [Compound H-613], the inhibition at 10 µM is 38%.

On to `O=C(O)c1cc(NC(=O)c2ccc3c(c2)OCCO3)cc(NC(=O)n2c3ccccc3c3ccccc32)c1` [Compound H-692], for which the inhibition at 10 µM fell in the range of 80 to 94%.

With `CC(=O)Nc1ccc(C(=O)Nc2cc(NC(=O)n3c4ccccc4c4ccccc43)cc(C(=O)O)c2)cc1` [Compound H-694], the inhibition at 10 µM came to 69%.

Take `O=C(O)c1cc(NC(=O)c2ccc3ccccc3n2)cc(NC(=O)N(c2ccccc2)c2ccccc2)c1` [Compound H-733]: the inhibition at 10 µM came to 61%.

Consider `O=C(O)c1cc(NC(=O)c2ccc3c(c2)OCCO3)cc(NC(=O)N(c2ccccc2)c2ccccc2)c1` [Compound H-734], for which the inhibition at 10 µM worked out at 82%.

Turning to `O=C(Cn1c2ccccc2c2ccccc21)Nc1cc(NC(=O)c2ccc3ccccc3c2)cc(C(=O)O)c1` [Compound H-745], the inhibition at 10 µM lay within 88 to 95%.

As to `O=C(Cn1c2ccccc2c2ccccc21)Nc1cc(NC(=O)c2ccc3c(c2)OCCO3)cc(C(=O)O)c1` [Compound H-749], the inhibition at 10 µM was 53%.

`O=C(COc1ccccc1)Nc1cc(NC(=O)n2c3ccccc3c3ccccc32)cc(C(=O)O)c1` [Compound H-759]: the inhibition at 10 µM is 11%.

`O=C(CN(c1ccccc1)c1ccccc1)Nc1cc(NC(=O)c2ccc3c(c2)OCCO3)cc(C(=O)O)c1` [Compound H-823]: the inhibition at 10 µM came out at 4.2%.

As to `O=C(CN(c1ccccc1)c1ccccc1)Nc1cc(NC(=O)c2ccccc2)cc(C(=O)O)c1` [Compound H-825], the inhibition at 10 µM was 19.9%.
